{"source": "patent US11363816B2", "about": "“4-amino-6-(heterocyclic)picolinates and 6-amino-2-(heterocyclic)pyramidine-4-carboxylates and their use as herbicides” (Dow AgroSciences LLC, priority 2017, dated 2022)", "format_in_all_cases": "in vivo", "key": {"[1]": {"tested_on": "CENCY=Centaurea cyanus (cornflower)", "test": "Postemergence field trial, Bielefed, Germany", "protocol": "(§1) Field trials were established in Spain (Banares and Granon) and Germany (Bielefeld) to evaluate the efficacy of Compound 5, Compound 6, and Compound 7. Trials were designed as randomized complete blocks with three to four replicates. Trials were established in winter wheat with natural weed population with plot sizes of 2-2.5 meters (m) by 6-8 m (width×length). The crops were grown using normal cultural practices for fertilization, seeding, and maintenance to ensure good growth of the crop. All herbicide treatments were applied post-emergence with applications made to the crops at the BBCH 21 to 23 growth stage. Herbicides were applied with backpack or bicycle sprayers using air as a propellant. The sprayers utilized flat fan air-induction spray nozzles calibrated to deliver a uniform spray pattern that provided thorough coverage of the foliage using a 200 L/ha spray volume. All treatments were applied with methylated seed oil (MSO) at 1.25% v/v. Phytotoxicity to the weeds was assessed visually at several intervals after application as percent overall control, compared to an untreated control plot. In general, three to four replicates were assessed for each treatment. All treatment results are an average of three or four replicates. Compound 5, Compound 6, and Compound 7 were applied as emulsifiable concentrate (EC) formulations at 100 g ae/L EC, respectively."}, "[2]": {"tested_on": "PAPRH=Papaver rhoeas L. (common poppy)", "test": "Postemergence field trial, Bielefed, Germany", "protocol": "as §1"}, "[3]": {"tested_on": "STEME=Stellaria media (L.) Vill. (common chickweed)", "test": "Postemergence field trial, Ellerslie, Alberta, Canada", "protocol": "(§2) Field trials were established in Canada (in Ellerslie, Alberta; Nisku, Alberta and Hanley, Saskatchewan) to evaluate the efficacy of Compound 5, Compound 6, and Compound 7. Trials were designed as randomized complete blocks with four replicates. Trials were established in spring wheat with natural weed population with plot sizes of 2-3 meters (m) by 8-10 m (width×length). The crops were grown using normal cultural practices for fertilization, seeding, and maintenance to ensure good growth of the crop.\n(§3) All herbicide treatments were applied post-emergence with applications made to the crops at BBCH (Phenological development stages of a plant) 14 to 22 growth stage. Herbicides were applied with backpack or bicycle sprayers using carbon dioxide (CO2) as a propellant. The sprayers utilized flat fan air-induction spray nozzles calibrated to deliver a uniform spray pattern that provided thorough coverage of the foliage using a 100 L/ha spray volume. All treatments were applied with methylated seed oil (MSO) at 1.25% v/v. Phytotoxicity to the weeds was assessed visually at several intervals after application as percent overall control, compared to an untreated control plot. In general, four replicates were assessed for each treatment. All treatment results are an average of four replicates.\n(§4) Compound 5, Compound 6 and Compound 7 were applied as emulsifiable concentrate (EC) formulations at 100 g ae/L EC, respectively."}, "[4]": {"tested_on": "POLCO=Polygonum convolvulus L. (wild buckwheat)", "test": "Postemergence field trial, Ellerslie, Alberta, Canada", "protocol": "as §2, §3, §4"}, "[5]": {"tested_on": "CHEAL=Chenopodium album L. (common lambsquarters)", "test": "Postemergence field trial, Ellerslie, Alberta, Canada", "protocol": "as §2, §3, §4"}, "[6]": {"tested_on": "STEME=Stellaria media (L.) Vill. (common chickweed)", "test": "Postemergence field trial, Nisku, Alberta, Canada", "protocol": "as §2, §3, §4"}, "[7]": {"tested_on": "CHEAL=Chenopodium album L. (common lambsquarters)", "test": "Postemergence field trial, Nisku, Alberta, Canada", "protocol": "as §2, §3, §4"}, "[8]": {"tested_on": "FUMOF=Fumaria officinalis (common fumitory)", "test": "Postemergence field trial, Banares, Spain", "protocol": "as §1"}, "[9]": {"tested_on": "VERHE=Veronica hederifolia (ivyleaved speedwell)", "test": "Postemergence field trial, Banares, Spain", "protocol": "as §1"}, "[10]": {"tested_on": "PAPRH=Papaver rhoeas L. (common poppy)", "test": "Postemergence field trial, Banares, Spain", "protocol": "as §1"}, "weeds": {"tested_on": "weeds", "test": "Herbicidal activity, overall conclusion from greenhouse and field results", "conditions": "summary of Tables 1 to 8", "excerpt": "These new chemical herbicides offer a broader spectrum of weed control, higher activity against weeds, and provide a way to address the management of weeds that developed resistance with respect to herbicides traditionally used to control them."}, "[11]": {"tested_on": "VERHE=Veronica hederifolia (ivyleaved speedwell)", "test": "Postemergence field trial, Granon, Spain (Table 5)", "protocol": "as §1"}, "[12]": {"tested_on": "PAPRH=Papaver rhoeas L. (common poppy)", "test": "Postemergence field trial, Granon, Spain (Table 5)", "protocol": "as §1"}}, "data": [{"smiles": "C#CCOC(=O)c1nc(-c2ccc3cc[nH]c3c2F)c(F)c(N)c1Cl", "note": "[Compound 5, prop-2-yn-1-yl 4-amino-3-chloro-5-fluoro-6-(7-fluoro-1H-indol-6-yl)picolinate]", "values": [{"measurement": "Percent (%) Visual Control CENCY 85DAAA", "setting": "[1]; 5 g ae/ha", "value": 65, "unit": "%"}, {"measurement": "Percent (%) Visual Control CENCY 85DAAA", "setting": "[1]; 10 g ae/ha", "value": 87.5, "unit": "%"}, {"measurement": "Percent (%) Visual Control CENCY 85DAAA", "setting": "[1]; 20 g ae/ha", "value": 95, "unit": "%"}, {"measurement": "Percent (%) Visual Control PAPRH 85DAAA", "setting": "[2]; 5 g ae/ha", "value": 92.5, "unit": "%"}, {"measurement": "Percent (%) Visual Control PAPRH 85DAAA", "setting": "[2]; 10 g ae/ha", "value": 97.3, "unit": "%"}, {"measurement": "Percent (%) Visual Control PAPRH 85DAAA", "setting": "[2]; 20 g ae/ha", "value": 98.8, "unit": "%"}, {"measurement": "Percent (%) Visual Control STEME 51DAAA", "setting": "[3]; 10 g ae/ha", "value": 66.3, "unit": "%"}, {"measurement": "Percent (%) Visual Control STEME 51DAAA", "setting": "[3]; 20 g ae/ha", "value": 83.3, "unit": "%"}, {"measurement": "Percent (%) Visual Control POLCO 51DAAA", "setting": "[4]; 10 g ae/ha", "value": 76.3, "unit": "%"}, {"measurement": "Percent (%) Visual Control POLCO 51DAAA", "setting": "[4]; 20 g ae/ha", "value": 91, "unit": "%"}, {"measurement": "Percent (%) Visual Control CHEAL 51DAAA", "setting": "[5]; 10 g ae/ha", "value": 98, "unit": "%"}, {"measurement": "Percent (%) Visual Control CHEAL 51DAAA", "setting": "[5]; 20 g ae/ha", "value": 98, "unit": "%"}, {"measurement": "Percent (%) Visual Control STEME 28DAAA", "setting": "[6]; 10 g ae/ha", "value": 88, "unit": "%"}, {"measurement": "Percent (%) Visual Control STEME 51DAAA", "setting": "[6]; 10 g ae/ha", "value": 88.3, "unit": "%"}, {"measurement": "Percent (%) Visual Control STEME 28DAAA", "setting": "[6]; 20 g ae/ha", "value": 96, "unit": "%"}, {"measurement": "Percent (%) Visual Control STEME 51DAAA", "setting": "[6]; 20 g ae/ha", "value": 92.5, "unit": "%"}, {"measurement": "Percent (%) Visual Control STEME 28DAAA", "setting": "[6]; 40 g ae/ha", "value": 99, "unit": "%"}, {"measurement": "Percent (%) Visual Control STEME 51DAAA", "setting": "[6]; 40 g ae/ha", "value": 93.8, "unit": "%"}, {"measurement": "Percent (%) Visual Control CHEAL 51DAAA", "setting": "[7]; 10 g ae/ha", "value": 98, "unit": "%"}, {"measurement": "Percent (%) Visual Control CHEAL 51DAAA", "setting": "[7]; 20 g ae/ha", "value": 96.8, "unit": "%"}, {"measurement": "Percent (%) Visual Control CHEAL 51DAAA", "setting": "[7]; 40 g ae/ha", "value": 97.3, "unit": "%"}, {"measurement": "Percent (%) Visual Control FUMOF 83DAAA", "setting": "[8]; 5 g ae/ha", "value": 41.7, "unit": "%"}, {"measurement": "Percent (%) Visual Control FUMOF 83DAAA", "setting": "[8]; 10 g ae/ha", "value": 65, "unit": "%"}, {"measurement": "Percent (%) Visual Control FUMOF 83DAAA", "setting": "[8]; 20 g ae/ha", "value": 93.3, "unit": "%"}, {"measurement": "Percent (%) Visual Control VERHE 66DAAA", "setting": "[9]; 5 g ae/ha", "value": 60, "unit": "%"}, {"measurement": "Percent (%) Visual Control VERHE 66DAAA", "setting": "[9]; 10 g ae/ha", "value": 77.7, "unit": "%"}, {"measurement": "Percent (%) Visual Control VERHE 66DAAA", "setting": "[9]; 20 g ae/ha", "value": 91, "unit": "%"}, {"measurement": "Percent (%) Visual Control PAPRH 66DAAA", "setting": "[10]; 5 g ae/ha", "value": 57.7, "unit": "%"}, {"measurement": "Percent (%) Visual Control PAPRH 66DAAA", "setting": "[10]; 10 g ae/ha", "value": 70, "unit": "%"}, {"measurement": "Percent (%) Visual Control PAPRH 66DAAA", "setting": "[10]; 20 g ae/ha", "value": 90, "unit": "%"}, {"measurement": "herbicidal activity (overall conclusion)", "setting": "weeds", "value": "superior herbicidal activity over Compound 7"}, {"measurement": "Percent (%) Visual Control VERHE 34DAAA", "setting": "[11]; 5 g ae/ha", "value": 60, "unit": "%"}, {"measurement": "Percent (%) Visual Control VERHE 34DAAA", "setting": "[11]; 10 g ae/ha", "value": 77, "unit": "%"}, {"measurement": "Percent (%) Visual Control VERHE 34DAAA", "setting": "[11]; 20 g ae/ha", "value": 85, "unit": "%"}, {"measurement": "Percent (%) Visual Control PAPRH 84DAAA", "setting": "[12]; 5 g ae/ha", "value": 66.7, "unit": "%"}, {"measurement": "Percent (%) Visual Control PAPRH 84DAAA", "setting": "[12]; 10 g ae/ha", "value": 78.3, "unit": "%"}, {"measurement": "Percent (%) Visual Control PAPRH 84DAAA", "setting": "[12]; 20 g ae/ha", "value": 90.7, "unit": "%"}]}]}
